Earlier results as cited in patent publication US6534540B2, “Combination and method of treatment of cancer utilizing a COX-2 inhibitor and a 3-hydroxy-3-methylglutaryl-coenzyme-a (HMG-CoA) reductase inhibitor” (priority 2000, dated 2003).

Legend:
prostate cancer specimen = conditions: mice, prostate cancer specimen in vivo
[1] = system: Prostate Cancer Cell Line LNCaP
COX-2 = target: T1, COX-2 (Mus musculus, UniProt Q05769); conditions: in vivo
T1 sequence (Q05769 18-604): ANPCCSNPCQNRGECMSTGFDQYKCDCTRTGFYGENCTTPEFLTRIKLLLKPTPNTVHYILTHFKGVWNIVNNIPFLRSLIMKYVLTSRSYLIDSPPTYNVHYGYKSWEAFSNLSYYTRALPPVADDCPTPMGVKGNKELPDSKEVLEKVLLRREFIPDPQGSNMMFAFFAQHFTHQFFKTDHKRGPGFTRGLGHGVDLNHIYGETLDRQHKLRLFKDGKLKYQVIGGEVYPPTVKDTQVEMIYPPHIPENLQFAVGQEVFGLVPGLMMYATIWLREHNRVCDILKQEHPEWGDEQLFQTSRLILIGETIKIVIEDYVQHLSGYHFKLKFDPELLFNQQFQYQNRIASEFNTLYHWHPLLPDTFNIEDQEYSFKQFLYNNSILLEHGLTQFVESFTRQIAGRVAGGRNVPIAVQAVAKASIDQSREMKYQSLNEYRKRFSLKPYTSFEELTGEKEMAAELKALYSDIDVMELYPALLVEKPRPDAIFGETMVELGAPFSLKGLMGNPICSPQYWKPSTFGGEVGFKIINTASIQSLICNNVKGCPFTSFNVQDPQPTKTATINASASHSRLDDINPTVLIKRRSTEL

In the case of `CS(=O)(=O)Nc1ccc([N+](=O)[O-])cc1OC1CCCCC1` [NS398], the angiogenesis (prostate cancer specimen) is listed as “inhibit angiogenesis”.
In the case of `CC[C@H](C)C(=O)O[C@H]1C[C@@H](C)C=C2C=C[C@H](C)[C@H](CC[C@@H]3C[C@@H](O)CC(=O)O3)[C@H]21` [lovastatin], the “therapeutic value in prostate cancer” value [1] is given as “had therapeutic value in treating prostate cancer”.
In the case of `COc1cc(C2Oc3cc([C@H]4Oc5cc(O)cc(O)c5C(=O)[C@@H]4O)ccc3OC2CO)ccc1O` (stereo partly drawn) [silybinin], the “COX-2 inhibition relative to COX-1 inhibition” value (COX-2) is listed as “significant COX-2 inhibition relative to COX-1 inhibition”.
